From EPA's ToxRefDB 2

What was measured:
dog [1] = settings: Chronic toxicity; beagle; Oral; Gavage/Intubation; dose end: 12 month; group: systemic; systemic / hematology / erythrocyte (rbc) count differential / erythrocyte (rbc) + systemic / hematology / hematocrit (hct) / hematocrit (…
rat [2] = settings: Sub-acute repeat dose toxicity, sprague dawley, Oral, Gavage/Intubation, dose end: 28 day, group: systemic
rat [3] = settings: Prenatal developmental toxicity study, sprague dawley, Oral, Gavage/Intubation, dose end: 17 GD
rat [4] = settings: Subchronic oral toxicity in rodents, sprague dawley, Gavage/Intubation, dose end: 13 week, group: systemic
rabbit [5] = settings: Prenatal developmental toxicity study, himalayan, Oral, Gavage/Intubation, dose end: 18 GD, group: maternal
mouse = settings: Subchronic oral toxicity in rodents, cd1, Gavage/Intubation, dose end: 13 week, group: systemic
rat [6] = settings: Fertility (Segment I), sprague dawley, Oral, Gavage/Intubation, dose end: 6 PND
rabbit [7] = settings: Prenatal developmental toxicity study; himalayan; Oral; Gavage/Intubation; dose end: 12 GD; group: maternal; systemic / in life observation / body weight / body weight gain + systemic / in life observation / food consumption / food consumption
dog [8] = settings: Sub-acute repeat dose toxicity, beagle, Oral, Gavage/Intubation, dose end: 1 month, group: systemic
rabbit [9] = settings: Prenatal developmental toxicity study, himalayan, Oral, Gavage/Intubation, dose end: 18 GD
rat [10] = settings: Chronic toxicity; sprague dawley; Oral; Gavage/Intubation; dose end: 6 month; group: systemic; systemic / clinical chemistry / phosphorus / phosphorus + systemic / clinical chemistry / potassium / potassium + systemic / organ weight / …
dog [11] = settings: Chronic toxicity; beagle; Oral; Gavage/Intubation; dose end: 6 month; group: systemic; systemic / hematology / anisocytosis / anisocytosis + systemic / hematology / jolly bodies / jolly bodies + systemic / hematology / myeloid/…
rat [12] = settings: Subchronic dermal toxicity, sprague dawley, Topical, dose end: 13 week, group: systemic, systemic / in life observation / clinical signs / desquamation + systemic / in life observation / clinical signs / erythema + systemic / in …
rat [13] = settings: Prenatal developmental toxicity study, sprague dawley, Oral, Gavage/Intubation, dose end: 15 GD
[14] = systemic / clinical chemistry / creatinine / creatinine + systemic / clinical chemistry / glucose / glucose + systemic / clinical chemistry…
[15] = systemic / clinical chemistry / creatinine / creatinine + systemic / clinical chemistry / potassium / potassium + systemic / clinical …
[16] = group: developmental, developmental / developmental malformation / bone / delayed ossification + developmental / developmental malformation / bone / unossified
[17] = group: maternal, systemic / in life observation / body weight / body weight gain + systemic / in life observation / food consumption / food consumption
[18] = group: maternal, systemic / in life observation / body weight / body weight gain + systemic / in life observation / food consumption / food consumption + …
[19] = systemic / clinical chemistry / phosphorus / phosphorus + systemic / clinical chemistry / potassium / potassium + systemic / clinical …
[20] = systemic / clinical chemistry / phosphorus / phosphorus + systemic / clinical chemistry / urea nitrogen / urea nitrogen + systemic / …
[21] = systemic / in life observation / body weight / body weight gain + systemic / in life observation / food consumption / food consumption
[22] = systemic / in life observation / body weight / body weight gain + systemic / in life observation / food consumption / food consumption + …
[23] = systemic / clinical chemistry / urea nitrogen / urea nitrogen + systemic / hematology / hemoglobin (hgb) / hemoglobin (hgb) + systemic / …
[24] = group: maternal, reproductive / reproductive performance / estrous cycle / corpora lutea + reproductive / reproductive performance / implantations / …
[25] = group: parental, systemic / in life observation / body weight / body weight gain + systemic / in life observation / clinical signs / fur (altered appearance…
[26] = group: parental, systemic / in life observation / body weight / body weight gain + systemic / in life observation / food consumption / food efficiency
[27] = systemic / hematology / [other] / [other] + systemic / hematology / erythrocyte (rbc) count differential / erythrocyte (rbc) + systemic / …
[28] = systemic / hematology / erythrocyte (rbc) count differential / erythrocyte (rbc) + systemic / hematology / hematocrit (hct) / hematocrit (…
[29] = group: developmental, developmental / developmental malformation / limb / [other] + systemic / in life observation / body weight / fetal weight
[30] = group: maternal, reproductive / reproductive performance / aborted / aborted + reproductive / reproductive performance / premature delivery / premature …
[31] = group: developmental, developmental / developmental malformation / bone / bent + systemic / in life observation / body weight / fetal weight
[32] = group: maternal, systemic / in life observation / body weight / body weight + systemic / in life observation / body weight / body weight gain + systemic / in…

CC(=O)S[C@H](C(=O)N[C@H]1Cc2ccccc2[C@H]2CCC[C@@H](C(=O)O)N2C1=O)C(C)C [Ilepatril] was tested, and the LEL (dog [1]) was 12 mg/kg/day, the LOAEL (dog [1]) was > 12 mg/kg/day and the NEL (dog [1]) was 6 mg/kg/day. For the same compound, the NOAEL (dog [1]) was ≥ 12 mg/kg/day, the LOAEL (rat [2]; [14]) was > 1000 mg/kg/day and the NOAEL (rat [2]; [14]) was ≥ 1000 mg/kg/day. For the same compound, the LEL (rat [2]; [15]) was 30 mg/kg/day, the NEL (rat [2]; [15]) was < 30 mg/kg/day and the LEL (rat [3]; [16]) was 300 mg/kg/day. The LOAEL (rat [3]; [16]) was 300 mg/kg/day, the NEL (rat [3]; [16]) was 30 mg/kg/day and the NOAEL (rat [3]; [16]) was 30 mg/kg/day. For the same compound, the LEL (rat [3]; [17]) was 300 mg/kg/day, the LOAEL (rat [3]; [17]) was 300 mg/kg/day and the NEL (rat [3]; [18]) was 30 mg/kg/day. For the same compound, the NOAEL (rat [3]; [18]) was 30 mg/kg/day, the LOAEL (rat [4]; [19]) was > 1600 mg/kg/day and the NOAEL (rat [4]; [19]) was ≥ 1600 mg/kg/day. The LEL (rat [4]; [20]) was 400 mg/kg/day, the NEL (rat [4]; [20]) was < 400 mg/kg/day and the LEL (rabbit [5]; [21]) was 0.8 mg/kg/day. It also gave an LOAEL (rabbit [5]; [21]) of 0.8 mg/kg/day, an NEL (rabbit [5]; [22]) of 0.32 mg/kg/day and an NOAEL (rabbit [5]; [22]) of 0.32 mg/kg/day. For the same compound, the LOAEL (mouse; [15]) was > 1600 mg/kg/day, the NOAEL (mouse; [15]) was ≥ 1600 mg/kg/day and the LEL (mouse; [23]) was 400 mg/kg/day. For the same compound, the NEL (mouse; [23]) was < 400 mg/kg/day, the LEL (rat [6]; [24]) was 1000 mg/kg/day and the LOAEL (rat [6]; [24]) was > 1000 mg/kg/day. The NEL (rat [6]; [24]) was 100 mg/kg/day, the NOAEL (rat [6]; [24]) was ≥ 1000 mg/kg/day and the LOAEL (rat [6]; [25]) was > 1000 mg/kg/day. For the same compound, the NOAEL (rat [6]; [25]) was ≥ 1000 mg/kg/day, the LEL (rat [6]; [26]) was 10 mg/kg/day and the NEL (rat [6]; [26]) was < 10 mg/kg/day. The LEL (rabbit [7]) was 0.8 mg/kg/day, the LOAEL (rabbit [7]) was > 2 mg/kg/day and the NEL (rabbit [7]) was 0.32 mg/kg/day. The NOAEL (rabbit [7]) was ≥ 2 mg/kg/day, the LOAEL (dog [8]; [27]) was 50 mg/kg/day and the NOAEL (dog [8]; [27]) was 10 mg/kg/day. The LEL (dog [8]; [28]) was 10 mg/kg/day, the NEL (dog [8]; [28]) was < 10 mg/kg/day and the LEL (rabbit [9]; group: developmental, developmental / developmental malformation / limb / [other]) was 3.2 mg/kg/day. For the same compound, the LOAEL (rabbit [9]; [29]) was > 160 mg/kg/day, the NEL (rabbit [9]; [29]) was 1 mg/kg/day and the NOAEL (rabbit [9]; [29]) was ≥ 160 mg/kg/day. The LOAEL (rabbit [9]; [30]) was > 160 mg/kg/day, the NOAEL (rabbit [9]; [30]) was ≥ 160 mg/kg/day and the LEL (rabbit [9]; [17]) was 1 mg/kg/day. The NEL (rabbit [9]; [17]) was < 1 mg/kg/day, the LEL (rat [10]) was 10 mg/kg/day and the LOAEL (rat [10]) was > 1000 mg/kg/day. The NEL (rat [10]) was < 10 mg/kg/day, the NOAEL (rat [10]) was ≥ 1000 mg/kg/day and the LEL (dog [11]) was 30 mg/kg/day. The LOAEL (dog [11]) was > 30 mg/kg/day, the NEL (dog [11]) was 10 mg/kg/day and the NOAEL (dog [11]) was ≥ 30 mg/kg/day.
With CCC(C)(C)c1ccc(O)cc1 [4-(2-Methylbutan-2-yl)phenol] the LEL (rat [12]) was 10 mg/kg/day, the LOAEL (rat [12]) was 10 mg/kg/day and the NEL (rat [12]) was 2.5 mg/kg/day. The NOAEL (rat [12]) was 2.5 mg/kg/day, the LEL (rat [13]; [31]) was 500 mg/kg/day and the LOAEL (rat [13]; [31]) was 500 mg/kg/day. For the same compound, the NEL (rat [13]; [31]) was 200 mg/kg/day, the NOAEL (rat [13]; [31]) was 200 mg/kg/day and the LEL (rat [13]; [32]) was 200 mg/kg/day. The LOAEL (rat [13]; [32]) was 200 mg/kg/day, the NEL (rat [13]; [32]) was 50 mg/kg/day and the NOAEL (rat [13]; [32]) was 50 mg/kg/day.
